One block for each molecule: values may come before it.
Legend:
[1] = biological target: T1, S-Acetyl-coenzyme A synthetase (EC 6.2.1.1) from baker's yeast, Immobilized enzyme (PEI-PNIPAm) (Saccharomyces cerevisiae, UniProt Q01574); test: Reaction kinetics of PEI-PNIPAm-immobilized Acetyl CoA-synthetase for acetate (citrate synthase/malate dehydrogenase coupled assay, Table 2); format: biochemical; conditions: acetate substrate at 37°C; ATP 1 mM, CoA 0.5 mM; enzyme adsorbed on PEI-PNIPAm microgel
T1 construct: purchased Sigma-Aldrich (Germany)
T1 sequence (Q01574 1-713): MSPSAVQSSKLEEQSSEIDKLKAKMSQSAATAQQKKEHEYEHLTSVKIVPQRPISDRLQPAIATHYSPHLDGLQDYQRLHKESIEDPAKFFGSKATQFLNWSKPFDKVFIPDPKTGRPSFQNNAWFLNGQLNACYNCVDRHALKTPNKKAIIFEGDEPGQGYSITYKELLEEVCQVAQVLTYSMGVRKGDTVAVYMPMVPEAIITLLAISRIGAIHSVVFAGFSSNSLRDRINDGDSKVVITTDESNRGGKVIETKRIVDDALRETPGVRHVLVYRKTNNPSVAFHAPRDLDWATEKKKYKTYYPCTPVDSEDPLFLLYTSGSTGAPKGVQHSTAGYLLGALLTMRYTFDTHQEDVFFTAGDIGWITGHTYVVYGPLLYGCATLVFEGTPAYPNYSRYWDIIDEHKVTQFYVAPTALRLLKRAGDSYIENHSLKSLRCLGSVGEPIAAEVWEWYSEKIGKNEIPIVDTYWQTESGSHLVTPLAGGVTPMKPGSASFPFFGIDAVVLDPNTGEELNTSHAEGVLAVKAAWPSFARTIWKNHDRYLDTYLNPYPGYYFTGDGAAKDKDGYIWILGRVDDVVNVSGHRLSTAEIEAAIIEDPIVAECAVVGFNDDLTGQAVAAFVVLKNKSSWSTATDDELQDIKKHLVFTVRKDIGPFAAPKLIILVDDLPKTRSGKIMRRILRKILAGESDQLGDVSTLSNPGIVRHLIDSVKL
Method: The immobilization of Acetyl CoA-synthetase on PEI-PNIPAm microgel was achieved via adsorption in 0.1 M Tris-CI buffer at pH 8 for 6 h at 4°C. The conjugate was obtained by centrifugation at 12,000 rpm for 15 min at 25°C and subsequently washed with the same buffer to remove non adsorbed enzymes. Using Micro BCA (for protein concentrations lower than 20 µg/mL) assay kits, the amounts of adsorbed enzyme loaded to the microgel was determined by subtracting the residual protein content in the supernatant from the initial protein content. The enzyme and conjugate were stored in 0.1 M Borate buffer containing 1 mM glutathione and 1 mM magnesium chloride pH 8 for further use.
The activity of free and immobilized Acs was determined spectrophotometrically by following acetyl CoA synthesis at 340 nm wavelength by coupling to Citrate synthase (CS) and malate dehydrogenase (MDH) assay. […]
(§1) Assuming Michaelis-Menten kinetics for Acetyl CoA-synthetase by the following equations: V = (Vmax [S])/(Km + [S]) [formula] where V is the rate of the reaction, [S] is the concentration of the substrate, Km is the apparent constant, and Vmax is the maximum of reaction velocity. The values for Km and Vmax, were estimated with the help of a Lineweaver-Burk plot for the Michaelis-Menten equation expressed as follows: (1)/(V) = (Km)/(Vmax)[…](1)/([S]) + (1)/(Vmax) [formula] […]

[2] = biological target: T2, S-Acetyl-coenzyme A synthetase (EC 6.2.1.1) from baker's yeast, Immobilized enzyme (PNIPAm-AEMA) (Saccharomyces cerevisiae, UniProt Q01574); test: Reaction kinetics of PNIPAm-AEMA-immobilized Acetyl CoA-synthetase for acetate (pyrophosphate-molybdate assay, Table 1); format: biochemical; conditions: acetate substrate at 37°C; ATP 1 mM, CoA 0.5 mM; enzyme covalently immobilized on PNIPAm-AEMA microgel
T2 construct: purchased Sigma-Aldrich (Germany)
T2 sequence (Q01574 1-713): T1 sequence (Q01574 1-713)
Method: Acetyl CoA-synthetase was covalently immobilized to PNIPAm-AEMA core-shell microgel using carbodiimide chemistry in 0.1 M Borate buffer at pH 8. Inorganic phosphate present in commercial enzyme preparation (interferes with molybdate assay) was removed by filtration using 30 kDa centrifuge filter tubes (Millipore).
The activity of free acetyl CoA synthetase and their bioconjugates with PNIPAm-AEMA or microgel was studied in borate buffer (0.1 M, pH 8), in presence of 20 mM potassium acetate, 4 mM MgCl2, 4 mM glutathione, 1 mM ATP, and 500 µM coenzyme A. The reaction was terminated by addition of acidic molybdate reagent. The pyrophosphate-molybdate complex formed was further reduced by addition of mercaptoethanol and Eikonogen reagent. The obtained coloured product was quantified by measuring the absorption at 590 nm and pyrophosphate concentration was determined (ε = 2.7 x 10^4 M^-1 cm^-1). […]
as §1

[3] = biological target: T3, S-Acetyl-coenzyme A synthetase (EC 6.2.1.1) from baker's yeast, free enzyme (Saccharomyces cerevisiae, UniProt Q01574); test: Reaction kinetics of free Acetyl CoA-synthetase for acetate (pyrophosphate-molybdate assay, Table 1); format: biochemical; conditions: acetate substrate at 37°C, ATP 1 mM, CoA 0.5 mM, Lineweaver-Burk plot
T3 construct: purchased Sigma-Aldrich (Germany)
T3 sequence (Q01574 1-713): T1 sequence (Q01574 1-713)
Method: (§2) The activity of free acetyl CoA synthetase and their bioconjugates with PNIPAm-AEMA or microgel was studied in borate buffer (0.1 M, pH 8), in presence of 20 mM potassium acetate, 4 mM MgCl2, 4 mM glutathione, 1 mM ATP, and 500 µM coenzyme A. The reaction was terminated by addition of acidic molybdate reagent. The pyrophosphate-molybdate complex formed was further reduced by addition of mercaptoethanol and Eikonogen reagent. The obtained coloured product was quantified by measuring the absorption at 590 nm and pyrophosphate concentration was determined (ε = 2.7 x 10^4 M^-1 cm^-1).
(§3) One unit of enzyme activity was defined as the amount of enzyme required to form 1 µmol pyrophosphate per min at pH 8 and 37°C. Bradford micro assay with a sensitivity of 1-10 µg/mL was used to determine protein concentration using bovine serum albumin as the standard protein. […]
as §1

[4] = biological target: T3, S-Acetyl-coenzyme A synthetase (EC 6.2.1.1) from baker's yeast, free enzyme; test: Reaction kinetics of free Acetyl CoA-synthetase for acetate (citrate synthase/malate dehydrogenase coupled assay, Table 2); format: biochemical; conditions: acetate substrate at 37°C, ATP 1 mM, CoA 0.5 mM, Lineweaver-Burk plot
Method: The activity of free and immobilized Acs was determined spectrophotometrically by following acetyl CoA synthesis at 340 nm wavelength by coupling to Citrate synthase (CS) and malate dehydrogenase (MDH) assay.
The assay medium composition for enzyme activity consists of 20 mM potassium acetate, 4 mM MgCl, 4 mM glutathione, 1 mM ATP, 500 µM co-enzyme A, 1 mM NAD and 4 mM malate in 100mM Tris Cl buffer pH 8. The acetyl CoA synthesized was correlated to the concentration of NADH formed in a coupled assay using […]. One unit of enzyme activity was defined as the amount of enzyme which is required to form 1 µmol of NADH per min at pH 8 and 37°C.
The reaction kinetics of free and immobilized enzymes was studied at various concentrations of acetate (5 mM - 0.3 mM) as a substrate and keeping concentrations of ATP and CoA constant at 1 mM and 0.5 mM, respectively. […]
as §1

[5] = substrate: CC(=O)O; test: Reaction kinetics of free Acetyl CoA-synthetase for acetate (pyrophosphate-molybdate assay, Table 1); format: biochemical, Saccharomyces cerevisiae; conditions: other: acetate substrate at 37°C, acetate 5 mM - 0.3 mM, ATP 1 mM, CoA 0.5 mM, Lineweaver-Burk plot, free enzyme, pH 8.0
Method: as §2, §3, §1

Vmax [1]: 44 x10^-3± 2 x10^-3 U/min | Vmax [2]: 5.6 x10^-3± 0.1x10^-3 U/min | Vmax [3]: 8.5x10^-3 ± 0.4x10^-3 U/min | Vmax [4]: 16x10^-3 ± 1 x10^-3 U/min
Molecule: CC(=O)O [acetate]

B1: S-Acetyl-coenzyme A synthetase (EC 6.2.1.1) from baker's yeast, free enzyme (Saccharomyces cerevisiae S288C) (protein)
chain: T1 sequence (Q01574 1-713)
notes: purchased Sigma-Aldrich (Germany)
Km [5]: 170 ± 30 µM
